Measurements published in ChEMBL document CHEMBL1157712, “Hit to lead account of the discovery of bisbenzamide and related ureidobenzamide inhibitors of Rho kinase” (J Med Chem, 2010).
pIC50: −log10 of the molar value. Values belong to the compound of their own block, whether it stands above or below them.

Assays:
[1] = target: Serine/threonine-protein kinase D1 (Homo sapiens) (UniProt Q15139); experiment: Inhibition of PKD1 at 3 uM relative to control; values are per cent of control
[2] = target: Serine/threonine-protein kinase pim-2 (Homo sapiens, UniProt Q9P1W9); experiment: Inhibition of PIM2 at 3 uM relative to control; values are per cent of control
[3] = target: SRSF protein kinase 1 (Homo sapiens) (UniProt Q96SB4); experiment: Inhibition of SRPK1 at 3 uM relative to control; values are per cent of control
[4] = target: Calcium/calmodulin-dependent protein kinase type 1 (Homo sapiens) (UniProt Q14012); experiment: Inhibition of CAMK1 at 3 uM relative to control; values are per cent of control
[5] = target: Proto-oncogene tyrosine-protein kinase Src (Homo sapiens) (UniProt P12931); experiment: Inhibition of SRC at 3 uM relative to control; values are per cent of control
[6] = target: T1, Protein kinase C epsilon type (Homo sapiens, UniProt Q02156); experiment: Inhibition of PKCepsilon
T1 sequence (Q02156 whole entry): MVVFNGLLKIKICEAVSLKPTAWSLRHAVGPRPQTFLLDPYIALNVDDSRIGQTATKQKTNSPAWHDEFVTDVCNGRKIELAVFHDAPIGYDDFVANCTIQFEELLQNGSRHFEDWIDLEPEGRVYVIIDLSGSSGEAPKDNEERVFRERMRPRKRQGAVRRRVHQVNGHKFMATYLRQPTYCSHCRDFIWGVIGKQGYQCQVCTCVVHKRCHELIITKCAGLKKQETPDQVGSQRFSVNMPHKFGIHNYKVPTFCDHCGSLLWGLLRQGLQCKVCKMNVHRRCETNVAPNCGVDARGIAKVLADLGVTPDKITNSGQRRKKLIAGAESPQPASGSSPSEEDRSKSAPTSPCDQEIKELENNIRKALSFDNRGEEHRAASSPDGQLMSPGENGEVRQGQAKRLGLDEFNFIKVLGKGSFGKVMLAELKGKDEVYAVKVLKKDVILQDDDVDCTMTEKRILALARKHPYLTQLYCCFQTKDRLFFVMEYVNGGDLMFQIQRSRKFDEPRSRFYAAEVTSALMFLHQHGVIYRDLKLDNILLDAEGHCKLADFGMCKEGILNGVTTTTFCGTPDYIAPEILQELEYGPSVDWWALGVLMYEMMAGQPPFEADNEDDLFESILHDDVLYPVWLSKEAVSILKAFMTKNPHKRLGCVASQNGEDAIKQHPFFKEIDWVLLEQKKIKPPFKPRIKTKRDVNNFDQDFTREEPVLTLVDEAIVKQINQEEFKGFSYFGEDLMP

[7] = target: Mitogen-activated protein kinase 15 (Homo sapiens) (UniProt Q8TD08); experiment: Inhibition of ERK8 at 3 uM relative to control; values are per cent of control
[8] = target: Tyrosine-protein kinase CSK (Homo sapiens) (UniProt P41240); experiment: Inhibition of CSK at 3 uM relative to control; values are per cent of control
[9] = target: Aurora kinase B (Homo sapiens) (UniProt Q96GD4); experiment: Inhibition of Aurora B at 3 uM relative to control; values are per cent of control
[10] = target: Serine/threonine-protein kinase Sgk1 (Homo sapiens) (UniProt O00141); experiment: Inhibition of SGK at 3 uM relative to control; values are per cent of control
[11] = target: MAP kinase-interacting serine/threonine-protein kinase 1 (Homo sapiens) (UniProt Q9BUB5); experiment: Inhibition of MNK1 at 3 uM relative to control; values are per cent of control
[12] = target: Serine/threonine-protein kinase N2 (Homo sapiens, UniProt Q16513)
[13] = target: Cyclin-dependent kinase 2 (Homo sapiens) (UniProt P24941); experiment: Inhibition of CDK2 at 3 uM relative to control; values are per cent of control
[14] = target: Serine/threonine-protein kinase Chk1 (Homo sapiens) (UniProt O14757); experiment: Inhibition of CHK1 at 3 uM relative to control; values are per cent of control
[15] = target: Epidermal growth factor receptor (Homo sapiens) (UniProt P00533); details: 3 to 6 uM
Description: Inhibition of EGFR at 3 to 6 uM relative to control

[16] = target: Dual specificity tyrosine-phosphorylation-regulated kinase 1A (Homo sapiens) (UniProt Q13627); details: 3 to 6 uM
Description: Inhibition of DYRK1A at 3 to 6 uM relative to control

[17] = target: Serine/threonine-protein kinase Nek2 (Homo sapiens) (UniProt P51955); details: 3 to 6 uM
Description: Inhibition of NEK2a at 3 to 6 uM relative to control

[18] = target: Tyrosine-protein kinase Lyn (Homo sapiens, UniProt P07948); experiment: Inhibition of LYN
[19] = Membrane permeability by PAMPA assay; format: ADME; details: read-out: permeability
[20] = target: Myosin light chain kinase, smooth muscle (Homo sapiens) (UniProt Q15746); details: 3 to 6 uM
Description: Inhibition of SMMLCK at 3 to 6 uM relative to control

[21] = target: Serine/threonine-protein kinase D1 (Homo sapiens) (UniProt Q15139); details: 3 to 6 uM
Description: Inhibition of PKD1 at 3 to 6 uM relative to control

[22] = target: Serine/threonine-protein kinase PLK1 (Homo sapiens, UniProt P53350); experiment: Inhibition of PLK
[23] = target: Mitogen-activated protein kinase 14 (Homo sapiens) (UniProt Q16539); details: 3 to 6 uM
Description: Inhibition of p38a at 3 to 6 uM relative to control

[24] = target: Tyrosine-protein kinase ITK/TSK (Homo sapiens, UniProt Q08881); experiment: Inhibition of ITK
[25] = target: Eukaryotic elongation factor 2 kinase (Homo sapiens) (UniProt O00418); details: 3 to 6 uM
Description: Inhibition of EF2K at 3 to 6 uM relative to control

[26] = target: Ribosomal protein S6 kinase alpha-3 (Homo sapiens) (UniProt P51812); details: 3 to 6 uM
Description: Inhibition of RSK2 at 3 to 6 uM relative to control

[27] = target: Mitogen-activated protein kinase kinase kinase 11 (Homo sapiens, UniProt Q16584); experiment: Inhibition of MAP3K11
[28] = target: Casein kinase I isoform alpha (Homo sapiens) (UniProt P48729); details: 3 to 6 uM
Description: Inhibition of CK1 at 3 to 6 uM relative to control

[29] = target: Aurora kinase B (Homo sapiens) (UniProt Q96GD4); details: 3 to 6 uM
Description: Inhibition of Aurora B at 3 to 6 uM relative to control

[30] = target: MAP kinase-activated protein kinase 5 (Homo sapiens) (UniProt Q8IW41); details: 3 to 6 uM
Description: Inhibition of PRAK at 3 to 6 uM relative to control

Focal adhesion kinase 1 = Focal adhesion kinase 1 (Homo sapiens, UniProt Q05397); experiment: Inhibition of PTK2
[31] = target: SRSF protein kinase 1 (Homo sapiens) (UniProt Q96SB4); details: 3 to 6 uM
Description: Inhibition of SRPK1 at 3 to 6 uM relative to control

Chain of SRSF protein kinase 1 (Homo sapiens) (Q96SB4 whole entry): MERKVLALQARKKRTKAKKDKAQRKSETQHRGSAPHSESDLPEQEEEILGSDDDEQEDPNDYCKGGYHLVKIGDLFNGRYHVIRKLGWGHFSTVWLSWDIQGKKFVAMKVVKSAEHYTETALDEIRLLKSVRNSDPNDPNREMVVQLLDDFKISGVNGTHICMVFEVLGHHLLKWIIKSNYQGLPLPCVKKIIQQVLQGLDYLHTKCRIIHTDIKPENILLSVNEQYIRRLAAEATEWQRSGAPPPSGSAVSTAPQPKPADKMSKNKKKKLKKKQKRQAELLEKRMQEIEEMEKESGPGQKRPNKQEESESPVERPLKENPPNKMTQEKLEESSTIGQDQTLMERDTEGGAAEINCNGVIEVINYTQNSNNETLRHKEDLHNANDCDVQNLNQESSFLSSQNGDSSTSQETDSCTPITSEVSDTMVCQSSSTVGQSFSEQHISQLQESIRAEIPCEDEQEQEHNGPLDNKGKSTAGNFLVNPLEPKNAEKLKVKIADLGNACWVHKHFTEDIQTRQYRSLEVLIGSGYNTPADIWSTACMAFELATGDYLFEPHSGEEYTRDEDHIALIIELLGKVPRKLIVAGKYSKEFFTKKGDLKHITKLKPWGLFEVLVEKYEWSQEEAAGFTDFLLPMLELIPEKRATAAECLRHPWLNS
Chain of Aurora kinase B (Homo sapiens) (Q96GD4 whole entry): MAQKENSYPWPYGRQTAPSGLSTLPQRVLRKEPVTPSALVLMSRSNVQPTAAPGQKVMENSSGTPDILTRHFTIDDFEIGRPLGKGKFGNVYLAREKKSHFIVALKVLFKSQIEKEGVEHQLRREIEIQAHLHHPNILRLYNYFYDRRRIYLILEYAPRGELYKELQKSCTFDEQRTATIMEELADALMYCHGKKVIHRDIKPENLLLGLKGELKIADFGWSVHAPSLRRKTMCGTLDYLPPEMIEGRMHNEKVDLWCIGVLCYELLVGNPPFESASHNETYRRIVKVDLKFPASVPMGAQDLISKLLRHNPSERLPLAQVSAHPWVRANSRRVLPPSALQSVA
Chain of Serine/threonine-protein kinase D1 (Homo sapiens) (Q15139 whole entry): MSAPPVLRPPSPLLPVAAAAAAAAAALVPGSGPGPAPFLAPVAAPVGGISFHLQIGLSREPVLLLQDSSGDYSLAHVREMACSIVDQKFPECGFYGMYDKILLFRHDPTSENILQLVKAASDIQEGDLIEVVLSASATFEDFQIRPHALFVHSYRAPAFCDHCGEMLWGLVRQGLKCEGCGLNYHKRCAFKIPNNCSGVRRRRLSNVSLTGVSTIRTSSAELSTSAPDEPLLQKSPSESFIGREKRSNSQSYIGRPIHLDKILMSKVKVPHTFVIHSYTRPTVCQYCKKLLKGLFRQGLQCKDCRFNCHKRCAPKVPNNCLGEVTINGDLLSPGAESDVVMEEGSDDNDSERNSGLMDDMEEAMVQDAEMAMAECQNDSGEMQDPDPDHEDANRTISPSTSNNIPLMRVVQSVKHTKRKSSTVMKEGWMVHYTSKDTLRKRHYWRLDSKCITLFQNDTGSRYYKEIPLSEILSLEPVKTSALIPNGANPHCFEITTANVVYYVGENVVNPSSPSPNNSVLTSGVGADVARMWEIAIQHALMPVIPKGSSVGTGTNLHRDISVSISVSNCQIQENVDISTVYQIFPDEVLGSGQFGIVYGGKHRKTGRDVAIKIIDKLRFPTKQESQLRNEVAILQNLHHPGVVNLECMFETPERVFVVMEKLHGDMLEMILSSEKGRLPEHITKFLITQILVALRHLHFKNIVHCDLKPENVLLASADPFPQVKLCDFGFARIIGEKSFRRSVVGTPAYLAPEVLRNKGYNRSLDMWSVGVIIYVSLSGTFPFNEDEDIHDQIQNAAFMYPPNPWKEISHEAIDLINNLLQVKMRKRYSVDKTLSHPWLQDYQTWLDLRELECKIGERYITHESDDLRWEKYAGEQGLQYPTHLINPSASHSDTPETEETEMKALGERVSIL
Chain of Myosin light chain kinase, smooth muscle (Homo sapiens) (Q15746 whole entry): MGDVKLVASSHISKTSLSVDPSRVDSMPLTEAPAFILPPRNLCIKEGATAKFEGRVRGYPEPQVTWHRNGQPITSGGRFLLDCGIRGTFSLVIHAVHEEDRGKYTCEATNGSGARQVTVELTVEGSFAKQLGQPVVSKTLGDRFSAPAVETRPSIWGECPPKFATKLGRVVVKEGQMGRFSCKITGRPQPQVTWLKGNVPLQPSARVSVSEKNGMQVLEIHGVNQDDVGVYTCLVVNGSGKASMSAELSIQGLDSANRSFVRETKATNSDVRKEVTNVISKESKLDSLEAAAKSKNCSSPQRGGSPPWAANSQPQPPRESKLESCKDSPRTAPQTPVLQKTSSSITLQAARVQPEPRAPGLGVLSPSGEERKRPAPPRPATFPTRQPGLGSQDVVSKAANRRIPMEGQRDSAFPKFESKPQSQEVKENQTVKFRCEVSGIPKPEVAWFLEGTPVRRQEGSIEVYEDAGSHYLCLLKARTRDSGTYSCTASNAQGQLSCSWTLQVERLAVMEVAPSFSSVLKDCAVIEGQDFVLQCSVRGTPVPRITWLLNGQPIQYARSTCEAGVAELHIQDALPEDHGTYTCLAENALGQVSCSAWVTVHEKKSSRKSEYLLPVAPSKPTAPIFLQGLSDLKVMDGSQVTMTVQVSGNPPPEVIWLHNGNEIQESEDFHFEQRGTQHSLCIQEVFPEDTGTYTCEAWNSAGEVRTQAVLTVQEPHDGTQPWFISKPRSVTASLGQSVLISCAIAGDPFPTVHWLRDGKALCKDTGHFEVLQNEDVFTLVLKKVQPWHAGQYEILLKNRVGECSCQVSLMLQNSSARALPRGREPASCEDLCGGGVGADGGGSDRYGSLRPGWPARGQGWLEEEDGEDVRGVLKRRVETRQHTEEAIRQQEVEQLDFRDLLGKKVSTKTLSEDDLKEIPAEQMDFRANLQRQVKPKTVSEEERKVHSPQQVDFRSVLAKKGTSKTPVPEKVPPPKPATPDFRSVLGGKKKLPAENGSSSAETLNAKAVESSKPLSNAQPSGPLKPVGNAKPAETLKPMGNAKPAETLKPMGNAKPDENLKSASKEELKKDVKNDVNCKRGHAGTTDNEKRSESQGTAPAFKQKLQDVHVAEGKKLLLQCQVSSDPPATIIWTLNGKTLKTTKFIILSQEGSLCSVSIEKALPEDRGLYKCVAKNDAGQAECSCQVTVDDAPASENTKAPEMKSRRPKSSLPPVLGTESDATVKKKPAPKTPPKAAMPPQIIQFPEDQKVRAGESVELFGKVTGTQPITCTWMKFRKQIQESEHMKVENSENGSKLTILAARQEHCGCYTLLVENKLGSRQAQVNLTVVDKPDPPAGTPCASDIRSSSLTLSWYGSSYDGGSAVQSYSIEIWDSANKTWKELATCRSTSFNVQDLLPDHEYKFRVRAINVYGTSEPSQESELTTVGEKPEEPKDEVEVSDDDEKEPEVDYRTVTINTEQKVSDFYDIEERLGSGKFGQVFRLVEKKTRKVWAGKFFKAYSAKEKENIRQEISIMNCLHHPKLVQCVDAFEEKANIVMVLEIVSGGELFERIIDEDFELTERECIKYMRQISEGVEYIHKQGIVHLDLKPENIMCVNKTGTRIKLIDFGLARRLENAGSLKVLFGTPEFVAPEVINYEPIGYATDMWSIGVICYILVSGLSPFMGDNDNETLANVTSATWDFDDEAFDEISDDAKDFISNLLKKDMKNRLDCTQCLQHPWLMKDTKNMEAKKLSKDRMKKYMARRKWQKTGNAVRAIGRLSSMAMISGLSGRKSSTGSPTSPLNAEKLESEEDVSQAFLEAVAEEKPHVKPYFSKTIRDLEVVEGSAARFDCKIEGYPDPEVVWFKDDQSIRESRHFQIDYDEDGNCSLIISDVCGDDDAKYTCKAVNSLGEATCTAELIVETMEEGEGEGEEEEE
Chain of Tyrosine-protein kinase Lyn (P07948 whole entry): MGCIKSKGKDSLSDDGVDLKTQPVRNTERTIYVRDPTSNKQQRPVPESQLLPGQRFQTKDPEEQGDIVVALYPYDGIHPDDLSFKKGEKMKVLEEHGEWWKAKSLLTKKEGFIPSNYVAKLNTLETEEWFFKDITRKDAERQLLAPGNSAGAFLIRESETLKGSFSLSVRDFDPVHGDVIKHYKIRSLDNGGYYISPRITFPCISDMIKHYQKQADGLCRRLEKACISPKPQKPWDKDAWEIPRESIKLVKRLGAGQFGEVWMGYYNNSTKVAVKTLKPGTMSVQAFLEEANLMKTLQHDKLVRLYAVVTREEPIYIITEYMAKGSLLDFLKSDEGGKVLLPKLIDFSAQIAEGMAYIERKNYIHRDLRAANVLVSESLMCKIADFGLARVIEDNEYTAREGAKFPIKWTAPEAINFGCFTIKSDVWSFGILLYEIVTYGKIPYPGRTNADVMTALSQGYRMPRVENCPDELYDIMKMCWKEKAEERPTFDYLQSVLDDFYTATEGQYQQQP
Chain of Calcium/calmodulin-dependent protein kinase type 1 (Homo sapiens) (Q14012 whole entry, looked up): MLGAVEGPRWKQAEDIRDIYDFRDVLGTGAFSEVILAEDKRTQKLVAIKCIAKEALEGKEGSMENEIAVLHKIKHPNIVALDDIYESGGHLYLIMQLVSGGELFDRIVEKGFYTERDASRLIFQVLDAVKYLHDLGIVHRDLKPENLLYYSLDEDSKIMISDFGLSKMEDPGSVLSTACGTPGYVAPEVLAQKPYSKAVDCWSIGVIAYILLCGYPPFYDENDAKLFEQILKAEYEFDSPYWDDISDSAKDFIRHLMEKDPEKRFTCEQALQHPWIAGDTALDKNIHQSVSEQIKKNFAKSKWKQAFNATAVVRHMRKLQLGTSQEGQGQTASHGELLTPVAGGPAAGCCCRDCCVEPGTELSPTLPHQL
Chain of Casein kinase I isoform alpha (Homo sapiens) (P48729 2-337 limits assumed): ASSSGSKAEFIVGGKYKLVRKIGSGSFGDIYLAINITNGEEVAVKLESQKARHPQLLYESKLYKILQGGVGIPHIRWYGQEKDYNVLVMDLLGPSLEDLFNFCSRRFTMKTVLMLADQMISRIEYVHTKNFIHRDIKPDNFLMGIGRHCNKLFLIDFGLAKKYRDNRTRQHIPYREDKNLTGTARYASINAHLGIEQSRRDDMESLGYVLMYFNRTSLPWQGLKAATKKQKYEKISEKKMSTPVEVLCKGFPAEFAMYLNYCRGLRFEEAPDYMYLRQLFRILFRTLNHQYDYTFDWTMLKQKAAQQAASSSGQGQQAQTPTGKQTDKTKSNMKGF

residual activity [1]: > 50% | residual activity [2]: > 50% | residual activity [3]: > 50% | residual activity [4]: > 50% | residual activity [5]: > 50% | pIC50 [6]: < 5.30 | residual activity [8]: > 50% | residual activity [9]: > 50% | residual activity [10]: > 50% | residual activity [11]: > 50% | pIC50 [12]: 6.11 | residual activity [13]: > 50% | residual activity [14]: > 50%
SMILES: NC(=O)c1ccc(NC(=O)NCc2cccc(C(=O)Nc3ccc4c(c3)CNCC4)c2)cc1
residual activity [7]: > 50%

residual activity [15]: > 50% | residual activity [16]: > 50% | residual activity [17]: > 50% | pIC50 [18]: < 5.00 | Papp [19]: 3.6 ×10⁻⁶ cm/s | residual activity [20]: > 50% | residual activity [21]: > 50% | pIC50 [22]: < 5.00 | residual activity [23]: > 50% | pIC50 [24]: < 5.00 | residual activity [25]: > 50% | residual activity [26]: > 50% | pIC50 [27]: < 5.00 | residual activity [28]: > 50% | residual activity [29]: > 50% | residual activity [30]: > 50% | pIC50 (Focal adhesion kinase 1): < 5.00 | residual activity [31]: > 50%
SMILES: COc1ccc(C(=O)NCc2cccc(C(=O)Nc3ccc4c(c3)CNCC4)c2)cc1OC
